Data reported in patent US10526369B2, “Oxidative modification improves the drugability of cell penetrating peptides as drug carriers” (JOWIN BIOPHARMA, priority 2016, dated 2020).
Where a SMILES comes first, the peptide text is derived from it. Bridges are numbered along the chain shown (N, C = ends). Roman numbers before positions name the chains, in order. Where no end group is shown, it is not given here. The star is where a group is joined. FITC = O=C1OC2(c3ccc(O)cc3Oc3cc(O)ccc32)c2ccc(NC(=S)*)cc21; 5FAM = O=C1OC2(c3ccc(O)cc3Oc3cc(O)ccc32)c2ccc(C(=O)*)cc21

How the values were obtained:
NCI-H460 cells = test: Heparan sulfate binding assay on cells (fluorescence spectrophotometer); format: cell-based; conditions: NCI-H460 cells pre-incubated with heparanase 5 U/ml, 37° C., 2 hours
Method: FIG. 7 illustrates binding specificity of CPPecp and CPPecp-dimer on NCI-H460 cells. Before treatment, each well (96-well plate) was blocked by 2% of BSA at 4° C. for 1 hour, and washed with PBS once. After blocking, NCI-H460 cells were incubated with 0.625, 1.25 and 2.5 μM of FITC-CPPecp and FITC-CPPecp dimer at 4° C. for 1 hour. After washing with PBS, the binding of FITC-CPPecp and FITC-CPPecp dimer were measured by fluorescence spectrophotometer (A). To test binding specificity, cells were incubated with heparanase (5 U/ml) at 37° C. for 2 hours before peptide incubation (B and C). Total peptide inputs (binding and washout) were set as 100 percent and the relative binding of FITC-CPPecp and FITC-CPPecp dimer were calculated. The data represented the means of triplicate incubations. […]
In order to certify if the specific binding affinity to heparan sulfate of disulfide linked CPPecp-dimer is still maintained as original CPPecp, the heparan sulfate binding affinity was investigated by FITC-conjugated CPPecp monomer and dimer, and measured by fluorescence spectrophotometer. […] After rinse, each well was refilled with 100 μl of 1× PBS and the fluorescence intensity was measured by fluorescence spectrophotometer (excitation: 485 nm; emission: 521 nm) as binding partition. Unbound and rinsed out peptides were obtained by adding up the fluorescence intensity of culture medium and buffer. […]

[1] = Stability of peptides in mice serum (HPLC of remaining peptide, t1/2 by CompuSyn); format: in vitro ADME; conditions: for Fold increase (of t1/2 compared with CPPecp): t1/2 of CPPecp set as one-fold; for half-life: mouse
Method: FIG. 1 illustrates the stability of CPPecp in mice serum. CPPecp was dissolved in 1× PBS (4 mg/ml) and incubated with equal volume of mice serum (final 50%) for different time points (0, 2, 5, 15, 30, 60 min, respectively). The reaction was terminated by the addition of an equal volume of TCA solution (final 50%) and denatured serum proteins were removed by centrifugation. The supernatant was then assayed by HPLC to quantify the remaining CPPecp. Zero time point was set as 100 percent of remaining CPPecp and relative amounts of CPPecp in each time point were calculated. Data represent the mean±SD (standard deviation) of three independent experiments. The t1/2 of CPPecp was calculated by CompuSyn.
FIG. 2 illustrates comparison of stabilities between CPPecp and N-terminal FITC-conjugated CPPecp in mice serum. Both were dissolved in dH2O (0.5 mg/ml) and incubated with equal volume of 20% mice serum (final 10%) for different time points (0, 2, 5, 15, 30, 60 min, respectively). The reactions were terminated by the addition of an equal volume of TCA solution (final 50%) and denatured serum proteins were removed by centrifugation. The supernatants were assayed by HPLC to quantify the remaining peptides. Zero time point was set as 100 percent of remaining peptides and relative amounts of peptides in each time point were calculated. The t1/2, of CPPecp and N-terminal FITC-CPPecp were calculated by CompuSyn.
FIG. 3 illustrates stabilities of N-terminal (5-FAM)-CPPecp-CPPecp (A) and N-terminal Ac-CPPecp (B) in mice serum. Both modified peptides were dissolved in dH2O (0.5 mg/ml) and incubated with equal volume of 20% mice serum (final 10%) for different time points (0-24 hours for (5-FAM)-CPPecp-CPPecp and 0-60 min for Ac-CPPecp, respectively). The reactions were terminated by the addition of an equal volume of TCA solution (final 50%) and denatured serum proteins were removed by centrifugation. The supernatants were assayed by HPLC to quantify the remaining peptides. Zero time point was set as 100 percent of remaining peptides and relative amounts of peptides in each time point were calculated. The t1/2 of N-terminal (5-FAM)-CPPecp-CPPecp and N-terminal Ac-CPPecp were calculated by CompuSyn.
FIG. 5 illustrates comparison of stabilities between CPPecp (A) and CPPecp-dimer (B) in mice serum. Both peptides were dissolved in 1× PBS (4 mg/ml) and incubated with equal volume of mice serum (final 50%) for different time points (0-60 min for CPPecp and 0-48 hours for CPPecp-dimer, respectively). The reactions were terminated by the addition of an equal volume of TCA solution (final 50%) and denatured serum proteins were removed by centrifugation. The supernatants were assayed by HPLC to quantify the remaining peptides. Zero time point was set as 100 percent of remaining peptides and relative amounts of peptides in each time point were calculated. Data represent the mean±SD (standard deviation) of three independent experiments. The t1/2, of CPPecp and CPPecp-dimer were calculated by CompuSyn.
The unmodified CPPecp (NH2-NYRWRCKNQN-COOH (SEQ. ID NO:2)) was synthesized by MISSION BIOTECH Inc. in TAIWAN. To determine the stability of unmodified CPPecp in mice serum, 100 μl of CPPecp (0.5 mg/ml or 4 mg/ml) was mixed with equal volume of whole mice serum (strain: CD-1 (ICR), final 50%) and incubated at room temperature for 0, 2, 5, 15, 30 and 60 min. The reaction was stopped by adding 200 μl of 100% TCA solution and vortexed for 5 seconds to precipitate serum proteins. Denatured serum proteins were removed by centrifugation at 18000 x g, 4° C. for 2 mins. The supernatants were analyzed by HPLC (column: Purospher® STAR RP-18e, eluent A: 0.1% TFA in dH2O, eluent B: 0.1% TFA in acetonitrile, flow rate: 1ml/min, gradient: 2-35% of eluent B in 15 min, UV wavelength: 280 nm). Zero-time point was set as one hundred percent of remaining CPPecp and relative amount of CPPecp in each time point were calculated. The t1/2 of CPPecp was calculated by CompuSyn (ver. 1.0). […]

[2] = tested on: lung cancer cell lines: A549, NCI-H460 and NCI-H441; test: Toxicity in lung cancer cell lines (cell viability, MTS assay); format: cell-based; conditions: 0.3-30 μM, 72 hours
Method: FIG. 8 illustrates toxicities of CPPecp and CPPecp-dimer in different lung cancer cell lines. Cells were incubated with CPPecp and CPPecp-dimer in different concentrations (0, 0.3, 1, 3, 10 and 30 μM) at 37° C. for 72 hours. Cell viabilities were measured by MTS assay. The 0 μM of CPPecp (vehicle control) was set as 100 percent and the relative viabilities in each concentration were calculated.
In order to investigate the application potential of CPPecp-dimer as a drug carrier, the toxicity of CPPecp-dimer was tested and CPPecp monomer was compared in three lung cancer cell lines: A549, NCI-H460 and NCI-H441. Lung cancer cell lines were seeded in 96-well plates (2*10^3/well) and incubated overnight. After adhesion, cells were incubated with different concentrations of CPPecp and CPPecp dimer (0, 0.3, 1, 3, 10 and 30 μM) for 72 hours. Cell viabilities were determined by MST assay (Promega Corp.). The cells without treatment were set as control and 100 percent and the relative viabilities in each concentration were calculated.

[3] = mice serum, final 10%, peptide 0.5 mg/ml in dH2O
[4] = mice serum (CD-1 (ICR)), final 50%, room temperature

Fold increase (of t1/2 compared with CPPecp) ([1]; mice serum)	half-life [1, 3] [min]	increase of the stability of CPPecp ([1]; mice serum, final 50%)	half-life [1, 4] [min]	Compound	binding percentage after heparanase treatment (NCI-H460 cells)	stability compared with unmodified CPPecp (in words) ([1]; mice serum, final 10%)	effect on cell viabilities [2]
+40%	3.28	–	–	N=C(N)NCCC[C@H](NC(=O)[C@H](Cc1c[nH]c2ccccc12)NC(=O)[C@H](CCCNC(=N)N)NC(=O)[C@H](Cc1ccc(O)cc1)NC(=O)[C@H](CC(N)=O)NC(=S)Nc1ccc2c(c1)C(=O)OC21c2ccc(O)cc2Oc2cc(O)ccc21)C(=O)N[C@@H](CS)C(=O)N[C@@H](CCCCN)C(=O)N[C@@H](CC(N)=O)C(=O)N[C@@H](CCC(N)=O)C(=O)N[C@@H](CC(N)=O)C(=O)O [FITC-CPPecp] ({FITC}-NYRWRCKNQN-OH; C-terminus assumed)	decreased binding percentage	not improved	–
+17900%	–	up to 180 fold	420	N=C(N)NCCC[C@H](NC(=O)[C@H](Cc1c[nH]c2ccccc12)NC(=O)[C@H](CCCNC(=N)N)NC(=O)[C@H](Cc1ccc(O)cc1)NC(=O)[C@@H](N)CC(N)=O)C(=O)N[C@@H](CSSC[C@H](NC(=O)[C@H](CCCNC(=N)N)NC(=O)[C@H](Cc1c[nH]c2ccccc12)NC(=O)[C@H](CCCNC(=N)N)NC(=O)[C@H](Cc1ccc(O)cc1)NC(=O)[C@@H](N)CC(N)=O)C(=O)N[C@@H](CCCCN)C(=O)N[C@@H](CC(N)=O)C(=O)N[C@@H](CCC(N)=O)C(=O)N[C@@H](CC(N)=O)C(=O)O)C(=O)N[C@@H](CCCCN)C(=O)N[C@@H](CC(N)=O)C(=O)N[C@@H](CCC(N)=O)C(=O)N[C@@H](CC(N)=O)C(=O)O [CPPecp-dimer] (I: H-NYRWRCKNQN-OH / II: H-NYRWRCKNQN-OH; disulfide I:6-II:6)	–	–	no inhibitory effect

The remaining lines, values behind:

Compound	Fold increase (of t1/2 compared with CPPecp) ([1]; mice serum)	half-life [1, 3] [min]	increase of the stability of CPPecp ([1]; mice serum, final 50%)	half-life [1, 4] [min]	binding percentage after heparanase treatment (NCI-H460 cells)	stability compared with unmodified CPPecp (in words) ([1]; mice serum, final 10%)	effect on cell viabilities [2]
Ac-NYRWRCKNQN [Ac-CPPecp]	−24%	1.79	–	–	–	–	–
N=C(N)NCCC[C@H](NC(=O)[C@H](Cc1ccc(O)cc1)NC(=O)[C@H](CC(N)=O)NC(=O)c1ccc2c(c1)C(=O)OC21c2ccc(O)cc2Oc2cc(O)ccc21)C(=O)N[C@@H](Cc1c[nH]c2ccccc12)C(=O)N[C@@H](CCCNC(=N)N)C(=O)N[C@@H](CS)C(=O)N[C@@H](CCCCN)C(=O)N[C@@H](CC(N)=O)C(=O)N[C@@H](CCC(N)=O)C(=O)N[C@@H](CC(N)=O)C(=O)N[C@@H](CC(N)=O)C(=O)N[C@@H](Cc1ccc(O)cc1)C(=O)N[C@@H](CCCNC(=N)N)C(=O)N[C@@H](Cc1c[nH]c2ccccc12)C(=O)N[C@@H](CCCNC(=N)N)C(=O)N[C@@H](CS)C(=O)N[C@@H](CCCCN)C(=O)N[C@@H](CC(N)=O)C(=O)N[C@@H](CCC(N)=O)C(=O)N[C@@H](CC(N)=O)C(=O)O [(5-FAM)-CPPecp-CPPecp] (5FAM-NYRWRCKNQNNYRWRCKNQN-OH; N-terminus and C-terminus assumed)	+720%	19.2	–	–	–	prolonged its stability from 2 to 24 hours	–
H-NYRWRCKNQN-OH [CPPecp, NH2-NYRWRCKNQN-COOH (SEQ. ID NO:2), reference compound]	0%	–	–	2.34	–	–	no inhibitory effect
